Source: US9951089B2, “Methods of treating a fatty acid amide hydrolase-mediated condition” (INFINITY PHARMACEUTICALS, INC., priority 2010, dated 2018)
Each block holds one molecule with its values, some of them ahead of it.

Columns and labels:
[1] = Solubility of drug product in water; type: physicochemical; details: crystalline solid
Text: (§1) In the clinic, protocol-specified portions of drug product are suspended in a vehicle consisting of commercially available medium viscosity USP carboxymethylcellulose sodium (CMC) in Sterile Water for Injection (SWFI). CMC is a chemically stable compound that is commonly used in oral pharmaceutical formulations and appears on the FDA list of substances that are Generally Recognized As Safe (GRAS).

[2] = Solubility plot in 2-MeTHF:n-heptane; type: physicochemical; details: 2-MeTHF:n-heptane solvent mixture, organic solvent or mixture; mixture of 2-MeTHF:n-heptane, at least a 2:1 ratio
Text: In order to further simplify the reaction workup transition, water-miscible THF was replaced with water immiscible 2-MeTHF as the reaction co-solvent with n-heptane, thus eliminating the need for MTBE in the workup. […] This afforded a relatively wide solubility range for both the reaction and the workup while still keeping the solvent volumes at reasonable levels for the telescoped steps.

[3] = Compatibility study: stability of drug product suspended in CMC vehicle; type: physicochemical; details: suspension in carboxymethylcellulose sodium (CMC) vehicle
Text: as §1

[4] = Mechanical stressing of Form A, XRPD read-out; type: physicochemical
Description: (§2) XRPD patterns were collected with an Inel XRG-3000 diffractometer. An incident beam of Cu Kα radiation was produced using a fine-focus tube and a parabolically graded multilayer mirror. Prior to the analysis, a silicon standard (NIST SRM 640c) was analyzed to verify the Si 111 peak position. A specimen of the sample was packed into a thin-walled glass capillary, and a beam-stop was used to minimize the background from air. Diffraction patterns were collected in transmission geometry using Windif v. 6.6 software and a curved position-sensitive Equinox detector with a 2θ range of 120°.
(§3) XRPD patterns were collected with a PANALYTICAL® X'Pert PRO MPD diffractometer using an incident beam of Cu radiation produced using an Optix long, fine-focus source. An elliptically graded multilayer mirror was used to focus Cu Kα X-rays through the specimen and onto the detector. Prior to the analysis, a silicon specimen (NIST SRM 640c) was analyzed to verify the Si 111 peak position. A specimen of the sample was sandwiched between 3 μm-thick films and analyzed in transmission geometry. A beam-stop and short antiscatter extension were used to minimize the background generated by air. Soller slits for the incident and diffracted beams were used to minimize broadening from axial divergence. Diffraction patterns were collected using a scanning position-sensitive detector (X'CELERATOR® located 240 mm from the specimen and Data Collector software v. 2.2b.
(§4) Form A crystal form of Compound 1 was subjected to (1) mechanical stressing experiments and (2) relative humidity stressing experiments, where the material was subjected to different levels of relative humidity (R.H.) and temperature.

[5] = Relative humidity stressing of Form A, XRPD read-out; type: physicochemical; details: 7 days
Description: as §2, §3, §4

[6] = Material B/Form A relative humidity stressing (conversion study); type: physicochemical; details: approximately 75% R.H. and 41° C.

solubility in water [1]: sparingly soluble
solubility [2]: > 100 mg/mL
stability of the drug product suspended in CMC [3]: at least 48 hours
SMILES: OB(O)c1ccc(-c2cccc(F)c2)cc1F [Compound 1, 3,3′-difluorobiphenyl-4-ylboronic acid]

XRPD Result after mechanical stressing ([4]; compress, 10,000 lb, 5 min., no solvent): Form A, low
XRPD Result after mechanical stressing ([4]; mill, 30 Hz, 20 min., ACN): Form A
XRPD Result after mechanical stressing ([4]; mill, 30 Hz, 20 min., MEK): Form A
XRPD Result after mechanical stressing ([4]; mill, 30 Hz, 20 min., THF): Form A
XRPD Result after mechanical stressing ([4]; mill, 30 Hz, 20 min., no solvent): Form A, low
stability to humidity stressing ([5]; 75% R.H., about 40° C.): stable
stability to humidity stressing ([5]; 75% R.H., room temperature): stable
XRPD Result after relative humidity stressing ([5]; 75% RH, 40° C.): Form A
XRPD Result after relative humidity stressing ([5]; 75% RH, RT): Form A
stability to humidity stressing ([5]; 97% R.H., room temperature): stable
XRPD Result after relative humidity stressing ([5]; 97% RH, RT): Form A
SMILES: OB(O)c1ccc(-c2cccc(F)c2)cc1F [Form A, 3,3′-difluorobiphenyl-4-ylboronic acid]

melting point: 238 to 241 °C
SMILES: Fc1cccc(-c2ccc(B3OB(c4ccc(-c5cccc(F)c5)cc4F)OB(c4ccc(-c5cccc(F)c5)cc4F)O3)c(F)c2)c1 [Compound 2, 2,4,6-tris(3,3′-difluorobiphenyl-4-yl)-1,3,5,2,4,6-trioxatriborinane]

crystal form conversion under humidity stressing ([6]; after 4, 7, and 14 days): The same mixture
SMILES: OB(O)c1ccc(-c2cccc(F)c2)cc1F [Material B, 3,3′-difluorobiphenyl-4-ylboronic acid]
crystal form conversion under humidity stressing ([6]; as early as 1 day): convert to a mixture of Material B and Form A
